We go through two molecules from US8722649B2, “Alpha-chloro and alpha-bromo phosphonate analogs of lysophosphatidic acid and methods of making and using thereof” (University of Utah Research Foundation, priority 2007, dated 2014).

Experiment [1] concerns MDA-MB-231 cells. The experiment in a line: Scratch wound healing migration assay. The experiment is classed as cell-based. Conditions: for MDA-MB-231 cell migration in words: 10 and 40 μM, 24 h. The procedure: Inhibition of migration. MDA-MB-231 cells were plated in triplicate into six-well plates at a concentration of 3×10^5 cells per well. Approximately 48 hours later, the confluent cells were carefully scratched using sterile pipette tips. Nonadherent cells and cellular debris were removed by washing with PBS. Fresh medium with or without various concentrations of BrP-LPA 1, syn-BrP-LPA 1a, or anti-BrP-LPA 1b (1-100 μM) were added to the wounded monolayers. Cells were observed under the microscope and digitally photographed at different times. Inhibition of migration was assessed when the wound in the control was closed and quantified by using ImageJ.

Experiment [2] concerns MDA-MB-231 cells. The experiment in a line: Matrigel transwell invasion assay. In kind it is cell-based. Conditions: Homo sapiens, 24 h, read-out: inhibition of MDA-MB-231 invasion through Matrigel. The procedure:
Inhibition of invasion. The invasive behavior of cells was determined in vitro by using 24-well transwell inserts with an 8 μm pore size PET membrane which were coated with Matrigel basement membrane matrix. A suspension of cells (100 μL of 5×10^4) in serum-free medium with or without 10 μM syn-BrP-LPA la or anti-BrP-LPA 1b was added to triplicate inserts, and 600 μL medium supplemented with serum was used as a chemoattractant in the lower chamber. […] Ten fields of cells were counted for each well, and the mean number of cells per field was calculated. Each experiment was performed in triplicate and repeated at least twice.

Experiment [3] relates to MDA-MB-231 cells. Briefly: Orthotopic breast cancer xenograft. The experiment is classed as in vivo, nude mice. Particulars: 3 mg/kg i.p., relative to control group. The method, then: Orthotopic Human Breast Cancer Models. 4-week-old female athymic nude mice (Charles River Laboratories) were anesthetized by intraperitoneal injection of ketamine (80 mg/kg) and xylazine (10 mg/kg),according to the protocol approved by the University of Utah Institutional Animal Care and Use Committee (IACUC). Then the thoracic skin was sterilized with iodine and alcohol swabs.
MDA-MB-231 were trypsinized and resuspended in 2.5% CMHA-S and 3% gelatin-DTPH (v:v=1:1). Then, one volume of 4% PEGDA solution was added to four volumes of the cell suspension, and the resulting suspension was mixed gently by vortexing. The final cell concentration was 5×10^7 cells/ml. When the cell suspension was becoming viscous (ca. 3-5 min at 20° C.), 200 uL of gel was injected subcutaneously into the fourth mammary fat pad of each mouse, using a total of six mice per group.
The assessment of chemotherapy on breast cancer. The mice were randomly divided into 4 groups, including control (physiological saline), paclitaxel, LPA antagonist (19b), and paclitaxel followed by 19b. Six mice for each cell line were necessary to get statistically significant results according to literature. The control group received physiological saline i.p. injection twice per week starting at two weeks after the cell transplantation and ending at two weeks after the treatment. The treatment groups received i.p. administration of paclitaxel (10 mg/kg/day) or 19b (10 mg/kg/day) twice per week with the same period of control group. One additional group included 2 dose of paclitaxel followed by 2 dose of 19b with the same period of control group. The treatment was received […] twice per week for 2 weeks total.
The body weight and tumor size were measured twice per week, and general clinical status of the animals was also assessed every day. Perpendicular tumor diameters were measured using a vernier scale caliper and tumor volume estimated using the formula for ellipsoid: […] (mm^3)=[width(mm)^2×length(mm)]/2. Data are expressed as median tumor areas with interquartile ranges.
Animals were euthanized at 4 weeks postinjection or once any signs of broken skin caused by the extension of tumor are found. Tumors were excised with surrounding tissues for histological evaluation. Analysis of variance was used to analyze the statistical difference on tumor growth between different groups. The results are in FIG. 8, where it is shown that the volume of the tumors is the lowest when mice were treated with paclitaxel followed by the administration of 19b.
Xenograft establishment and chemotherapy. […] The tumor sizes were measured and calculated by formula: tumor size (mm^3)=[width (mm)]^2×[length (mm)]/2. […]

A further experiment relates to HCT 116 cells. The experiment in a line: Hepatic colon cancer tumor growth. In kind it is in vivo, nude mice. Conditions: 10 mg/kg i.p. twice per week. The procedure:
Four-week-old female athymic nude mice (Charles River Laboratories, Wilmington, Mass.) were used for colon cell implantation. All animals were maintained in a sterile environment. Cages, bedding, food, and water were all autoclaved. All animals were maintained on a daily 12-hr light/12-hr dark cycle.
Nude mice were anesthetized by intraperitoneal injection of ketamine (80 mg/kg) and xylazine (10 mg/kg) according to the protocol approved by the University of Utah Institutional Animal Care and Use Committee (IACUC).
After anesthesia induction, the aseptic surgical field was sterilized with iodine and alcohol swabs. HCT 116 cells (1×10^6) in 50 μl of the sECM hydrogel Extracel was directly injected into the livers of nude mice after they had been randomly assigned to one of the groups at the beginning of the experiment (8 mice/group).
The control group received physiological saline i.p. injection twice per week starting at one week after the cell transplantation and ended at two weeks after the treatment. The treatment group received i.p. administration of the pure diastereomers 1b at 10 mg/kg twice per week with the same period of control group.
Mice were observed daily. Animals were euthanized at 3 weeks post-injection in a carbon dioxide chamber. Body weights were measured, and the livers were excised. Liver weights and tumor diameters were subsequently determined. Colon tumors were measured using digital calipers. The volume of the cancer was then calculated according to the formula: Cancer Volume (CV)=d2×D/2, where d and D are the shortest and the longest diameters, respectively. After measurement, the tumor tissue was then harvested and placed in 10% formalin for paraffin embedding in preparation for the subsequent histological analyses.

Structures are written as SMILES. Entries after “also recorded” stand apart in the source; their conditions may differ.

Consider `CCCCCCCCCCCCCCCC(=O)OC[C@@H](O)C[C@H](Br)P(=O)(O)O` [Compound 1b], for which the “decrease of MDA-MB-231 cell migration” value in the experiment with MDA-MB-231 cells [1] (40 μM, compared to control, scratch wound) is 57%. For the same molecule, the “MDA-MB-231 cell migration in words” value in the experiment on MDA-MB-231 cells [1] is reported as “inhibited the MDA-MB-231 cell migration”. The inhibition (usually the change of the read-out against control, counted positive when it falls) at 10 µM in the experiment with MDA-MB-231 cells [2] is roughly 52%. Moreover, in the experiment with MDA-MB-231 cells [3], the “tumor volume, separate diastereomers” value is on record as “significantly decreased the tumor volume; also recorded: reduces tumor size”. Further, in the experiment on HCT 116 cells, the “hepatic tumor burden (liver weight)” value is given as “marked reduction of hepatic tumor burden; also recorded: significantly reduced tumor burden” and the “new blood vessels in hepatic colon tumor (H&E)” value is on record as “significantly reduced amounts of new blood vessels”. Moreover, in the experiment with HCT 116 cells (vs untreated control), the “hepatic tumor size / tumor volume in words” value was “significantly smaller; also recorded: significant decrease in tumor volume; also recorded: smaller than the untreated control”.
As for `CCCCCCCCCCCCCCCC(=O)OC[C@@H](O)C[C@@H](Br)P(=O)(O)O` [Compound 1a], in the experiment on MDA-MB-231 cells [1], the “MDA-MB-231 cell migration in words” value is “inhibited the MDA-MB-231 cell migration”. Besides, the inhibition at 10 µM in the experiment on MDA-MB-231 cells [2] was roughly 52%. Besides, the “tumor volume, separate diastereomers” value in the experiment on MDA-MB-231 cells [3] is recorded as “significantly decreased the tumor volume; also recorded: reduces tumor size”.
